Measurements: article PMC12208134, “Structure-activity relationships of 1,5-dihydro-2H-benzo[b][1,4]diazepine-2,4(3H)-diones as inhibitors of Trypanosoma cruzi” (RSC medicinal chemistry, 2025)
Converted amounts (≈) assume the structure as drawn. “And” between values parts separate entries of the source, which are not always exact repeats. Equal entries are not always repeated.

Assays:
[1] = tested on: intracellular T. cruzi amastigotes; experiment: T. cruzi intracellular potency assay (high content imaging); assay type: cell-based, Trypanosoma cruzi; set-up: key to Max Effect (T. cruzi): % inhibition; 0% = DMSO control, 100% = 16 μM nifurtimox control; settings: for Emax / EC50 / IC50: Trypanosoma cruzi; for Emax / EC50 / Hill slope (T. cruzi) / Max Effect (T. cruzi) / pEC50 (T. cruzi): individual replicate; for Emax: read-out: Max Effect (T. cruzi); for EC50: read-out: pEC50 (T. cruzi) (converted); for IC50: intracellular amastigotes in Vero cells, 96 h, mean of N ≥ 3, read-out: T. cruzi pIC50 (converted)
Description: (§1) T. cruzi intracellular potency and rate-of-kill assay (high content imaging) ^1
(§2) Silvio X10/7 T. cruzi trypomastigotes were incubated at 37°C 5% CO2 with 1.6×10^7 Vero cells overnight at MOI10 in MEM media supplemented with 10% foetal calf serum (FCS). Extracellular parasites were removed by aspirating cell culture supernatant, and washing Vero monolayer with 10 ml serum-free MEM three times. Vero cells were then harvested by trypsinization and dispensed at 2×10^3 per well (50 μl in MEM/ 1% FCS) into 384 well plates pre-stamped with compounds in DMSO using automated washer/ dispenser EL406 and liquid handling software (Biotek). Plates were then incubated at 37°C in 5% CO2 for 96 h. For rate-of-kill determination, plates were incubated for 24h, 48h, 72h and 96h.
(§3) Plates were subsequently fixed with 4% formaldehyde for 20 min, permeabilised and stained with 5 μgml^-1 Hoechst 33342/ 0.1% Triton/ PBS Thimerosal 20 min. Automated imaging was performed by an Operetta high content imaging system using 20x objective (PerkinElmer). Images were analysed with an algorithm generated in Columbus (PerkinElmer) to segment Vero cell nuclei, Vero cell cytoplasm and parasite nuclei/ kinetoplasts, reporting number of amastigotes per Vero cell, percent infected Vero cells and total number of Vero cells. Compound potencies against T. cruzi parasites were calculated in IDBS Activitybase using percent infected Vero cells and Vero toxicity curves generated using number of host cells. All data was normalised to percent inhibition based on the raw data values for the 100% effect control (16 μM nifurtimox) and the 0% effect control (DMSO) on each plate at each time point. Curve fitting was carried out using a four-parameter equation as previously described. ^2 For rate-of-kill experiments the percent infected cells at each compound concentration was plotted against time.

host Vero cell = experiment: Vero host cell toxicity in the intracellular T. cruzi assay; assay type: cell-based; set-up: key to Max Effect (Vero): % inhibition; 0% = DMSO control, 100% = 16 μM nifurtimox control; settings: for IC50: host Vero cell, read-out: Vero pIC50 (converted)
Description: as §1, §2, §3

Tc-CYP51 = Tc-CYP51 (Trypanosoma cruzi, UniProt Q7Z1V1); experiment: T. cruzi sterol 14α-demethylase (CYP51) enzyme assay; assay type: biochemical; settings: for Tc CYP51 Hill / Emax / IC50: individual replicate; for Emax: read-out: Tc CYP51 Max Effect; for IC50: read-out: Tc CYP51 pIC50 (converted); for fold more potent against the parasites than against Tc-CYP51: urea series
Description: T. cruzi sterol 14α-demethylase (CYP51) enzyme assay
Potency against T. cruzi CYP51 was determined using a previously described fluorescence assay. Average potency for compound 1 was determined with three experimental replicates. Potencies in Fig.3 are from single experimental replicates. ^5

[2] = Kinetic aqueous solubility by CAD; assay type: physicochemical; settings: kinetic from dmso stock; kinetic, CAD; read-out: Aqueous solubility
[3] = Mouse liver microsomal intrinsic clearance; assay type: in vitro ADME; settings: mouse liver microsomes
[4] = Human liver microsomal intrinsic clearance; assay type: in vitro ADME; settings: human liver microsomes
[5] = ChromLogD pH7.4 (chromatographic hydrophobicity index), PFI, LLE; settings: for PFI: ChromLogDpH7.4 + no. aromatic rings; for chromatographic logD: pH 7.4
Source text: [23] Alongside PFI, LLE (ligand lipophilic efficiency, T. cruzi pIC50 - ChromLogDpH7.4) was also monitored to identify changes where the impact on potency was not driven by increasing lipophilicity.

[6] = Chlorocebus sabaeus, Vero, individual replicate

Tc-CYP51, sequence (Q7Z1V1 whole entry): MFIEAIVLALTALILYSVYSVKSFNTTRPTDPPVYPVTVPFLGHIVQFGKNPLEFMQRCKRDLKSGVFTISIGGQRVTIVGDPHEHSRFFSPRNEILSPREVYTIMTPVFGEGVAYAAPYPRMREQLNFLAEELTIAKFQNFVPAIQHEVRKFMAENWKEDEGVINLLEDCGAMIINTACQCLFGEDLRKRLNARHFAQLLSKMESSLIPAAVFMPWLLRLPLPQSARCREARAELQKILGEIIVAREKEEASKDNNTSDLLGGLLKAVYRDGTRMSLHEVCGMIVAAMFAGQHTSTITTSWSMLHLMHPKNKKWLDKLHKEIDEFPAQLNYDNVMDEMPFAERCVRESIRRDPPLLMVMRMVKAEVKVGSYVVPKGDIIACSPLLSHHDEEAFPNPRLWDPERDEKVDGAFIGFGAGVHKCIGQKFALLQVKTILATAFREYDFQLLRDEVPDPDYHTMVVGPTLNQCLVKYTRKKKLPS

Row | Compound | Emax [1] [%] | EC50 [1] [nM] | IC50 [1] [nM] | Hill slope (T. cruzi) [1] | Max Effect (T. cruzi) [1] | pEC50 (T. cruzi) [1] | EC50 (host Vero cell; [6]) [nM] | IC50 (host Vero cell; Chlorocebus sabaeus) [nM] | Max Effect (Vero) (host Vero cell; individual replicate) | Tc CYP51 Hill (Tc-CYP51) | Emax (Tc-CYP51) [%] | IC50 (Tc-CYP51) [nM] | solubility [2] [µM] | MLM CLi [3] [mL/min/g] | HLM CLi [4] [mL/min/g] | PFI [5] | chromatographic logD [5] | fold more potent against the parasites than against Tc-CYP51 (Tc-CYP51) [fold] | also measured
1 | COc1ccc(CN2C(=O)C(N)C(=O)N(c3ccccc3)c3ccccc32)cc1 (stereo not shown) [Compound 15, 3-amino-1-(4-methoxybenzyl)-5-phenyl-1,5-dihydro-2H-benzo[b][1,4]diazepine-2,4(3H)-dione] | 87 | 1580 | 1580 | 1.8 and 4.1 and 3.2 and 10.2 | 92 and 88 | 5.7 and 5.9 | > 50100 | > 50100 | 9 and 4.52 and 11 and 20 | 1.2 | 94 | 200 | > 232 | 16 | 1.3 | 7.1 | 4.1 | – | –
2 | COc1ccc(CN2C(=O)C(N)C(=O)N(c3ccc(OC)nc3)c3ccccc32)cc1 (stereo not shown) [Compound 18, 3-amino-1-(4-methoxybenzyl)-5-(6-methoxypyridin-3-yl)-1,5-dihydro-2H-benzo[b][1,4]diazepine-2,4(3H)-dione] | 75 | 501 | 501 | 11.9 and 18.7 and 19.1 and 12.3 | 86 and 77 and 83 | – | > 50100 | > 50100 | 39 and 19 and 56 and 14 | 1.3 | 100 | 200 | > 332 | 5.8 | <0.4 | 6.8 | 3.8 | – | Hill Slope (Vero) (host Vero cell; individual replicate): 3.7; pEC50 (Vero) (host Vero cell; individual replicate): 4.4
3 | COc1ccc(N2C(=O)C(NC(=O)Nc3ccc(C)cc3)C(=O)Nc3ccccc32)cc1 (stereo not shown) [Compound 4, 1-(1-(4-methoxyphenyl)-2,4-dioxo-2,3,4,5-tetrahydro-1H-benzo[b][1,4]diazepin-3-yl)-3-(p-tolyl)urea] | – | – | 1000 | 5.1 and 2.8 and 7.4 and 2.7 and 3.6 and 0.6 and 4.0 and 2.2 | 106 and 89 and 74 and 85 and 86 and 109 and 107 | 5.7 and 6.1 and 5.8 and 6.5 and 5.9 and 6.0 | > 50100 | > 50100 | 15 and 26 and 13 and 12 and 17 and 16 and 20 and 4 | 0.9 | 89 | 1580 | 56 (≈ 24.1 µg/mL) | 1.2 | <0.4 | 7.8 | 4.8 | 10 | –
4 | COc1cccc(N2C(=O)C(NC(=O)Nc3ccc(C)cc3)C(=O)Nc3ccccc32)c1 (stereo not shown) [Compound 5, 1-(1-(3-methoxyphenyl)-2,4-dioxo-2,3,4,5-tetrahydro-1H-benzo[b][1,4]diazepin-3-yl)-3-(p-tolyl)urea] | 87 | 2510 | 2510 | 2.8 and 3.2 | 88 and 91 | 5.7 and 5.5 | > 50100 | > 50100 | 47 and 14 and 18 and 12 | 0.7 | 68 | 3980 | 37 (≈ 15.9 µg/mL) | 1.6 | <0.4 | 7.8 | 4.8 | 10 | –
5 | COc1ccc(NC(=O)NC2C(=O)Nc3cccc(F)c3N(c3ccccc3)C2=O)cc1 (stereo not shown) [Compound 9, 1-(9-fluoro-2,4-dioxo-1-phenyl-2,3,4,5-tetrahydro-1H-benzo[b][1,4]diazepin-3-yl)-3-(4-methoxyphenyl)urea] | 91 | 501 | 398 | 5.2 and 12.9 and 2.3 and 2.7 | 89 and 94 | 6.5 and 6.4 | > 50100 | > 50100 | 6 and 11 and -2.3 and 8 | 1.3 | 90 | 10000 | < 1 | <0.5 | <0.4 | 7.2 | 4.2 | 10 | –
6 | COc1ccc(CN2C(=O)C(N)C(=O)N(c3ccc(F)cc3)c3ccccc32)cc1 (stereo not shown) [Compound 17, 3-amino-1-(4-fluorophenyl)-5-(4-methoxybenzyl)-1,5-dihydro-2H-benzo[b][1,4]diazepine-2,4(3H)-dione] | 88 | 501 | 631 | 24.4 and 25.4 and 12.5 and 3.5 | 87 and 83 | 6.2 and 6.0 | > 50100 | > 50100 | 26 and 8 and 14 and 23 | 1.8 | 95 | 200 | > 410 | 10.6 | <0.4 | 7.4 | 4.4 | – | –
7 | COc1ccc(CN2C(=O)C(N)C(=O)N(CC3CC(F)(F)C3)c3ccccc32)cc1 (stereo not shown) [Compound 20, 3-amino-1-((3,3-difluorocyclobutyl)methyl)-5-(4-methoxybenzyl)-1,5-dihydro-2H-benzo[b][1,4]diazepine-2,4(3H)-dione] | 84 | 1260 | 1260 | 2.8 and 3.6 and 20.7 | 90 and 80 and 87 | 6.1 and 6.0 and 5.8 | > 50100 | > 50100 | 30 and 22 and 25 and 9 | 1.3 | 99 | 100 | > 402 | 12 | 0.5 | 6.2 | 4.2 | – | –
8 | COc1ccc(CN2C(=O)C(N)C(=O)N(C3CC3)c3ccccc32)cc1 (stereo not shown) [Compound 19, 3-amino-1-cyclopropyl-5-(4-methoxybenzyl)-1,5-dihydro-2H-benzo[b][1,4]diazepine-2,4(3H)-dione] | 88 | 5010 | 3980 | 14.2 and 4.9 and 13.0 and 5.9 | 87 | 5.5 and 5.4 | > 50100 | > 50100 | 15 and 17 and 14 | 1.0 | 94 | 316 | > 442 | 11.8 | <0.4 | 5.2 | 3.2 | – | Emax (host Vero cell; Chlorocebus sabaeus, Vero, individual replicate, read-out: Max Effect (Vero)): 18%
